pIC50, pKi: −log10 of the molar value.
What was measured:
[1] = molecular target: T1, human Adenosine A2b receptor (Homo sapiens, UniProt P29275); experiment: Adenosine receptor TR-FRET binding assay (CA200645 displacement), A2b; details: 30 nM CA200645, CHO cell membranes, 2 hours at room temperature
T1 construct: expressed in transfected cells; host or cells: CHO cell membranes
T1 sequence (P29275 1-332): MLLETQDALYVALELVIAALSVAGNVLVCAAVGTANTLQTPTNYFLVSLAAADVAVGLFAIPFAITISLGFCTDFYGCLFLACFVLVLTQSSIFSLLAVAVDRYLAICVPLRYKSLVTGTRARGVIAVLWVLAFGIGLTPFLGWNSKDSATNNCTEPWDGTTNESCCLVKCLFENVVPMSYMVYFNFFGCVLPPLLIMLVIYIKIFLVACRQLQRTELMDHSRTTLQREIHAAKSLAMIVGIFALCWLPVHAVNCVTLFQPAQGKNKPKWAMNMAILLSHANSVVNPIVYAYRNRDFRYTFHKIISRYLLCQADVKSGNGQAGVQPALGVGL

[2] = molecular target: T2, human Adenosine A3 receptor (Homo sapiens, UniProt P0DMS8); experiment: Adenosine receptor TR-FRET binding assay (CA200645 displacement), A3
T2 sequence (P0DMS8 1-318): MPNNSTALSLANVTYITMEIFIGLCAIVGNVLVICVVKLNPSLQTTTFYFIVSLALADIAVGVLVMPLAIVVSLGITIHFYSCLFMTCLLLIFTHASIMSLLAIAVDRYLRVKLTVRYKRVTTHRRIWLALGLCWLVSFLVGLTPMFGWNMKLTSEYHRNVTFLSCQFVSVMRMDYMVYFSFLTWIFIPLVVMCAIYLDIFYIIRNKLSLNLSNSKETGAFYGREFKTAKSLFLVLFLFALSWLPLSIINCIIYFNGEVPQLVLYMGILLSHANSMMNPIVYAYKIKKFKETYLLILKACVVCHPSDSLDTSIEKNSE
Description: All FRET binding experiments were conducted at room temperature in white 384-well plates, in assay binding buffer containing 1×LabMed (Cisbio, France), 100 μg/mL saponin, 1% DMSO and 0.02% pluronic acid. Binding of the fluorescently labelled Adenosine receptor antagonist XAC (CA200645, FRET acceptor) to terbium-labelled A1, A2a, A2b and A3 adenosine receptors (FRET donors) was detected by time-resolved FRET due to the close proximity of the donor and acceptor in a binding event. To investigate the ability of unlabelled test compounds to bind to Adenosine A1, A2a, A2b and A3 receptors, dose response curves were constructed that determined the ability of a range of concentrations to inhibit the binding of 30 nM CA200645 to the A2b receptor and 100 nM CA200645 to the A1, A2a, and A3 receptor.
Serial dilution (1:3 dilutions) of test compounds in neat DMSO and transfer of a 400 nL sample of test compound into the assay plate was carried out using the Mosquito (TTP Labtech, UK). The compound samples were incubated for 2 hours at room temperature with a fixed concentration of CA200645 defined for each receptor (see above) and CHO cell membranes containing the human Adenosine A1 (0.5 μg/well), A2a (0.3 μg/well), A2b (1 μg/well) or A3 (1 μg/well) receptor in 40 μL of assay buffer. Total and non-specific binding of CA200645 was determined in the absence and presence of 10 μM XAC, respectively. Following 2 hours incubation, the level of CA200645 binding was detected on a Pherastar FSX (BMG Labtech, Germany) using standard TR-FRET settings. The terbium donor was excited with three laser flashes at a wavelength of 337 nm, and donor and acceptor emission was detected at 620 nm and 665 nm wavelengths, respectively. FRET ratios were obtained by multiplying the acceptor/donor ratio value by 10,000. Specific binding was determined by subtracting the non-specific binding FRET ratio from the total binding FRET ratio. Compound IC50 curves were analysed using GraphPad Prism 7.0 (GraphPad, USA) and Ki affinity values were determined from the obtained IC50 values using the method of Cheng and Prusoff.

[3] = molecular target: T3, human Adenosine A2a receptor (Homo sapiens, UniProt P29274); experiment: Adenosine receptor TR-FRET binding assay (CA200645 displacement), A2a; details: 100 nM CA200645, CHO cell membranes, 2 hours at room temperature
T3 construct: expressed in transfected cells; host or cells: CHO cell membranes

[4] = molecular target: T4, human Adenosine A1 receptor (Homo sapiens, UniProt P30542); experiment: Adenosine receptor TR-FRET binding assay (CA200645 displacement), A1
T4 sequence (P30542 1-326): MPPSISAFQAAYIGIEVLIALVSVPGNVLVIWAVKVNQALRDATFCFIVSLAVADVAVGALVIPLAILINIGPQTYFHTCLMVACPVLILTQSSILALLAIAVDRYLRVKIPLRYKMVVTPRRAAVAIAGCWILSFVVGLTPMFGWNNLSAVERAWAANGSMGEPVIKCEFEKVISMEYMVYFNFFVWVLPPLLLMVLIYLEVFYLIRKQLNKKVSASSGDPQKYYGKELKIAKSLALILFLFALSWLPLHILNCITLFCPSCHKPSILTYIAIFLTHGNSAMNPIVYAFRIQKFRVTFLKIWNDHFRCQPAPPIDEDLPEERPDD

[5] = system: CD8+ T cells in human whole blood; experiment: Measurement of pCREB in CD8+ T cells in human whole blood; type: cell-based; details: T-cell, 1 h; heparinised human whole blood, rolipram, 3 μM NECA, 60 min, phospho-CREB in CD8+ T cells by FACS
Description: Heparinised human whole blood was pre-incubated at 37° C. with serial dilutions of A2a antagonists for 20 min. and the phosphodiesterase inhibitor rolipram to amplify the pCREB response. The adenosine receptor agonist NECA is then added at a final concentration of 3 μM and following a 60 min incubation the blood is fixed and red blood cells lysed. White blood cells are isolated, permeabilized and stained with directly conjugated fluorescent antibodies to phospho-CREB (Alexa Fluor 488) and CD8 (Alexa Fluor 647) and the level of phospho-CREB in CD8+ T cells is measured by FACS using a BD Accuri C6 Flow Cytometer.

human PBMCs = experiment: CD3/CD28 stimulated IL-2 release NECA reversal assay in human PBMCs; type: cell-based; details: PBMC, CD3/CD28 antibody stimulated, 1 uM NECA, 24 hours, IL-2 in culture supernatant;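 also: dose-response as % inhibition where 100% equals no-NECA control wells with CD3/CD28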
Description: Blood is drawn from healthy volunteers using sodium citrate as the anticoagulant (0.3% final concentration). After centrifugation of the blood over Histopaque-1077, PBMCs are collected from the Histopaque/plasma interface and washed twice in PBS (300 g for 10 mins at room temp). Cells are plated at 50,000 cells/well in 150 μl RPMI/10% FCS in 96-well cell culture plates that have been precoated with 1 ug/ml CD3 antibody. 50 μl diluted compound mix is added to the cells, to obtain final concentrations of 1 ug/ml CD28 antibody, 1 uM NECA and 0.003-10 μM adenosine receptor antagonist. Assay plates are incubated for 24 hours at 37° C. in a humidified incubator. Culture supernatant is tested for IL-2 levels using the human IL-2 Tissue Culture Kit (Meso Scale Discovery).

T3 sequence (P29274 whole entry): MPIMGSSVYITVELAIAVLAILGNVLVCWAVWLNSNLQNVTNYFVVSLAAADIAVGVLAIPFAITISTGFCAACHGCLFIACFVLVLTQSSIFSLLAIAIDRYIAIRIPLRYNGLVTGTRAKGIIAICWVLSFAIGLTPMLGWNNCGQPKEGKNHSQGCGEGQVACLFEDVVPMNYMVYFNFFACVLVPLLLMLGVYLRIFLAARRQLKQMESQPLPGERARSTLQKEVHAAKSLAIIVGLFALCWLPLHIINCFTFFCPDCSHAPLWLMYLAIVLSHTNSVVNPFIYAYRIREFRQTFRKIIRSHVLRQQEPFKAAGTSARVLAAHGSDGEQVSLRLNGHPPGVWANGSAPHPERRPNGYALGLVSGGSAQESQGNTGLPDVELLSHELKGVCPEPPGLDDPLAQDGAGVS

Compound | pKi [1] | pKi [2] | pKi [3] | pKi [4] | pIC50 [5] | pIC50 (human PBMCs)
Cc1cc(-c2c(-c3cccc(C#N)c3)nn3ccc(NCC4(O)COC4)nc23)cc(Cl)n1 [Example 2.8] | 8.52 | < 6.00 | 8.89 | 7.21 | 6.21 | 7.39
Cc1cc(-c2c(-c3cccc(C#N)c3)nn3ccc(NCCC(C)(C)O)nc23)cc(Cl)n1 [Example 2.9] | 7.72 | < 6.00 | 8.85 | 7.51 | 7.15 | 7.72
Cc1cc(-c2c(-c3cccc(C#N)c3)nn3ccc(N[C@H]4C[C@@H](O)C4)nc23)cc(Cl)n1 [Example 2.10] | 8.00 | 5.81 | 8.85 | 6.92 | 5.92 | 7.32
Cc1cc(-c2c(-c3cccc(C#N)c3)nn3ccc(NC4CCN(S(C)(=O)=O)CC4)nc23)cc(Cl)n1 [Example 2.11] | 7.47 | < 6.00 | 8.82 | 6.75 | 5.88 | 8.30
Cc1cc(-c2c(-c3cccc(C#N)c3)nn3ccc(N4CC5CCC(C4)O5)nc23)cc(Cl)n1 [Example 2.12] | 7.66 | 5.63 | 8.82 | 7.06 | 5.38 | 7.49
Cc1cc(-c2c(-c3cccc(C#N)c3)nn3ccc(N[C@@H](C)C(C)(C)O)nc23)cc(Cl)n1 [Example 2.15] | 6.62 | < 6.00 | 8.70 | 6.05 | 6.04 | 7.23
Cc1cc(-c2c(-c3cccc(C#N)c3)nn3ccc(N[C@@H]4COC[C@@H]4O)nc23)cc(Cl)n1 [Example 2.16] | 8.40 | < 6.00 | 8.68 | 6.63 | 6.41 | 8.15
Cc1cc(-c2c(-c3cccc(C#N)c3)nn3ccc(N[C@H]4C[C@H](O)C4)nc23)cc(Cl)n1 [Example 2.18] | 8.00 | 5.61 | 8.59 | 6.72 | 5.73 | 7.34
Cc1cc(-c2c(-c3cccc(C#N)c3)nn3ccc(N[C@H](C)C(C)(C)O)nc23)cc(Cl)n1 [Example 2.20] | 7.74 | < 6.00 | 8.47 | 6.58 | 6.18 | 7.17
Cc1cc(-c2c(-c3cccc(C#N)c3)nn3ccc(N4CCOC(CCN(C)C)C4)nc23)cc(Cl)n1 (stereo not drawn) [Example 2.21] | 7.72 | < 6.00 | 8.34 | 6.75 | 5.91 | 7.51
Cc1cc(-c2c(-c3cccc(C#N)c3)nn3ccc(NCc4nnc[nH]4)nc23)cc(Cl)n1 [Example 2.23] | 8.52 | < 6.00 | 8.19 | 7.26 | 6.24 | 7.62

Source: patent publication US20230203041A1, “ANTAGONISTS OF THE ADENOSINE A2A RECEPTOR” (AdoRx Therapeutics Limited, priority 2020, published 2023)
